Test results published in patent publication US20230398130A1, “METHODS AND COMPOSITIONS FOR DIFFERENTIATING STEM CELLS” (Massachusetts Institute of Technology, priority 2020, published 2023).

What was measured:
ISC-enriched organoids [1] = assay: Primary screen, 384-well 2.5-D organoid differentiation (ENR+CD, 6 days): basal lysozyme secretion (LYZ.NS); assay type: cell-based, murine; details: for Dose.FC.LYZ.NS: FC vs plate median; for SSMD.LYZ.NS: strictly standardized mean difference; for Dose.FC.LYZ.NS (log 2 fold change, basal lysozyme secretion): vs plate median
From the text: (§1) High-throughput screening.

ISC-enriched organoids [2] = assay: Primary screen, 384-well 2.5-D organoid differentiation (ENR+CD, 6 days): carbachol-induced lysozyme secretion (LYZ.S); assay type: cell-based, murine; details: for Dose.FC.LYZ.S / Z.LYZ.S / SSMD.LYZ.S: primary screen; for Dose.FC.LYZ.S: FC vs plate median; for Z.LYZ.S: standard z score; for SSMD.LYZ.S: strictly standardized mean difference; for Dose.FC.LYZ.S (log 2 fold change, carbachol-induced lysozyme secretion): vs plate median
From the text: as §1

ISC-enriched organoids [3] = assay: Primary screen, 384-well 2.5-D organoid differentiation (ENR+CD, 6 days, Target Selective Inhibitor Library, vs whole-plate median): ATP (CellTiter-Glo 3D, CTG); details: for Dose.FC.CTG: FC vs plate median; for SSMD.CTG: strictly standardized mean difference; for Dose.FC.CTG (log 2 fold change, ATP): vs plate median
[4] = Dose 0.08 uM, primary screen, standard z score
[5] = Dose 0.40 uM, primary screen, standard z score
[6] = Dose 2.00 uM, primary screen, standard z score
[7] = Dose 10.00 uM, primary screen, standard z score
[8] = primary screen, 1st of the 4 dose lines of the treatment (dose not given)
[9] = primary screen, 2nd of the 4 dose lines of the treatment (dose not given)
[10] = primary screen, 3rd of the 4 dose lines of the treatment (dose not given)
[11] = primary screen, 4th of the 4 dose lines of the treatment (dose not given)
[12] = 1st of the 4 dose lines of the treatment (dose not given)
[13] = 2nd of the 4 dose lines of the treatment (dose not given)
[14] = 3rd of the 4 dose lines of the treatment (dose not given)
[15] = 4th of the 4 dose lines of the treatment (dose not given)
[16] = Dose 0.08 uM, standard z score of FC
[17] = Dose 0.40 uM, standard z score of FC
[18] = Dose 2.00 uM, standard z score of FC
[19] = Dose 10.00 uM, standard z score of FC

## KX2-391
ISC-enriched organoids [1]; Dose 0.08 uM, primary screen
  Dose.FC.LYZ.NS: −0.283 log 2 fold change
ISC-enriched organoids [1]; [4]
  Z.LYZ.NS: −2.468
ISC-enriched organoids [1]; Dose 0.40 uM, primary screen
  Dose.FC.LYZ.NS: −0.292 log 2 fold change
ISC-enriched organoids [1]; [5]
  Z.LYZ.NS: −2.546
ISC-enriched organoids [1]; Dose 2.00 uM, primary screen
  Dose.FC.LYZ.NS: −0.251 log 2 fold change
ISC-enriched organoids [1]; [6]
  Z.LYZ.NS: −2.188
ISC-enriched organoids [1]; Dose 10.00 uM, primary screen
  Dose.FC.LYZ.NS: −0.286 log 2 fold change
ISC-enriched organoids [1]; [7]
  Z.LYZ.NS: −2.494
ISC-enriched organoids [1]; [8]
  SSMD.LYZ.NS: −2.177
ISC-enriched organoids [1]; [9]
  SSMD.LYZ.NS: −1.855
ISC-enriched organoids [1]; [10]
  SSMD.LYZ.NS: −1.701
ISC-enriched organoids [1]; [11]
  SSMD.LYZ.NS: −2.061
ISC-enriched organoids [2]; Dose 0.08 uM
  Dose.FC.LYZ.S: −0.396 log 2 fold change
ISC-enriched organoids [2]; Dose 0.40 uM
  Dose.FC.LYZ.S: −0.380 log 2 fold change
ISC-enriched organoids [2]; Dose 2.00 uM
  Dose.FC.LYZ.S: −0.424 log 2 fold change
ISC-enriched organoids [2]; Dose 10.00 uM
  Dose.FC.LYZ.S: −0.419 log 2 fold change
ISC-enriched organoids [2]; [12]
  Z.LYZ.S: −2.561
  SSMD.LYZ.S: −2.252
ISC-enriched organoids [2]; [13]
  Z.LYZ.S: −2.455
  SSMD.LYZ.S: −1.641
ISC-enriched organoids [2]; [14]
  Z.LYZ.S: −2.741
  SSMD.LYZ.S: −1.898
ISC-enriched organoids [2]; [15]
  Z.LYZ.S: −2.709
  SSMD.LYZ.S: −2.140
ISC-enriched organoids [3]; Dose 0.08 uM, primary screen
  Dose.FC.CTG: −0.752 log 2 fold change
ISC-enriched organoids [3]; [4]
  Z.CTG: −1.796
ISC-enriched organoids [3]; Dose 0.40 uM, primary screen
  Dose.FC.CTG: −1.251 log 2 fold change
ISC-enriched organoids [3]; [5]
  Z.CTG: −2.989
ISC-enriched organoids [3]; Dose 2.00 uM, primary screen
  Dose.FC.CTG: −1.983 log 2 fold change
ISC-enriched organoids [3]; [6]
  Z.CTG: −4.737
ISC-enriched organoids [3]; Dose 10.00 uM, primary screen
  Dose.FC.CTG: −1.414 log 2 fold change
ISC-enriched organoids [3]; [7]
  Z.CTG: −3.377
ISC-enriched organoids [3]; [8]
  SSMD.CTG: −2.473
ISC-enriched organoids [3]; [9]
  SSMD.CTG: −2.845
ISC-enriched organoids [3]; [10]
  SSMD.CTG: −2.822
ISC-enriched organoids [3]; [11]
  SSMD.CTG: −1.255

## CC(/C=C/C(=O)NO)=C\[C@@H](C)C(=O)c1ccc(N(C)C)cc1 [Trichostatin A (TSA)]
ISC-enriched organoids [1]; dose 0.08 uM
  Z.LYZ.NS (standard z score): −0.554
  Dose.FC.LYZ.NS (log 2 fold change, basal lysozyme secretion): −0.064
ISC-enriched organoids [1]; dose 0.40 uM
  Z.LYZ.NS (standard z score): −1.697
  Dose.FC.LYZ.NS (log 2 fold change, basal lysozyme secretion): −0.195
ISC-enriched organoids [1]; dose 2.00 uM
  Z.LYZ.NS (standard z score): −1.334
  Dose.FC.LYZ.NS (log 2 fold change, basal lysozyme secretion): −0.153
ISC-enriched organoids [1]; dose 10.00 uM
  Z.LYZ.NS (standard z score): −1.298
  Dose.FC.LYZ.NS (log 2 fold change, basal lysozyme secretion): −0.149
ISC-enriched organoids [2]; dose 0.08 uM
  Dose.FC.LYZ.S (log 2 fold change, carbachol-induced lysozyme secretion): −0.124
ISC-enriched organoids [2]; dose 0.40 uM
  Dose.FC.LYZ.S (log 2 fold change, carbachol-induced lysozyme secretion): −0.254
ISC-enriched organoids [2]; dose 2.00 uM
  Dose.FC.LYZ.S (log 2 fold change, carbachol-induced lysozyme secretion): −0.210
ISC-enriched organoids [2]; dose 10.00 uM
  Dose.FC.LYZ.S (log 2 fold change, carbachol-induced lysozyme secretion): −0.202
ISC-enriched organoids [3]; dose 0.08 uM
  Z.CTG (standard z score): 0.457
  Dose.FC.CTG (log 2 fold change, ATP): 0.191
ISC-enriched organoids [3]; dose 0.40 uM
  Z.CTG (standard z score): −1.913
  Dose.FC.CTG (log 2 fold change, ATP): −0.801
ISC-enriched organoids [3]; dose 2.00 uM
  Z.CTG (standard z score): −2.159
  Dose.FC.CTG (log 2 fold change, ATP): −0.904
ISC-enriched organoids [3]; dose 10.00 uM
  Z.CTG (standard z score): −1.974
  Dose.FC.CTG (log 2 fold change, ATP): −0.826

## Nc1ncnc2c1c(-c1cccc(OCc3ccccc3)c1)cn2C1CC(CN2CCCC2)C1 (stereo not drawn) [NVP-ADW742]
ISC-enriched organoids [1]; Dose 0.08 uM, primary screen
  Dose.FC.LYZ.NS: 0.142 log 2 fold change
ISC-enriched organoids [1]; [16]
  Z.LYZ.NS: 1.239
ISC-enriched organoids [1]; Dose 0.40 uM, primary screen
  Dose.FC.LYZ.NS: 0.172 log 2 fold change
ISC-enriched organoids [1]; [17]
  Z.LYZ.NS: 1.499
ISC-enriched organoids [1]; Dose 2.00 uM, primary screen
  Dose.FC.LYZ.NS: −0.095 log 2 fold change
ISC-enriched organoids [1]; [18]
  Z.LYZ.NS: −0.823
ISC-enriched organoids [1]; Dose 10.00 uM, primary screen
  Dose.FC.LYZ.NS: −0.135 log 2 fold change
ISC-enriched organoids [1]; [19]
  Z.LYZ.NS: −1.172
ISC-enriched organoids [2]; Dose 0.08 uM
  Dose.FC.LYZ.S: 0.245 log 2 fold change
ISC-enriched organoids [2]; Dose 0.40 uM
  Dose.FC.LYZ.S: 0.265 log 2 fold change
ISC-enriched organoids [2]; Dose 2.00 uM
  Dose.FC.LYZ.S: −0.166 log 2 fold change
ISC-enriched organoids [2]; Dose 10.00 uM
  Dose.FC.LYZ.S: −0.210 log 2 fold change
ISC-enriched organoids [3]; Dose 0.08 uM, primary screen
  Dose.FC.CTG: 0.679 log 2 fold change
ISC-enriched organoids [3]; [16]
  Z.CTG: 1.622
ISC-enriched organoids [3]; Dose 0.40 uM, primary screen
  Dose.FC.CTG: 0.663 log 2 fold change
ISC-enriched organoids [3]; [17]
  Z.CTG: 1.583
ISC-enriched organoids [3]; Dose 2.00 uM, primary screen
  Dose.FC.CTG: 0.257 log 2 fold change
ISC-enriched organoids [3]; [18]
  Z.CTG: 0.614
ISC-enriched organoids [3]; Dose 10.00 uM, primary screen
  Dose.FC.CTG: −0.465 log 2 fold change
ISC-enriched organoids [3]; [19]
  Z.CTG: −1.112

## Cc1ccc(NC(=O)C2(c3ccc4c(c3)OC(F)(F)O4)CC2)nc1-c1cccc(C(=O)O)c1 [VX-809 (Lumacaftor)]
ISC-enriched organoids [1]; dose 0.08 uM
  Z.LYZ.NS (standard z score): 0.634
  Dose.FC.LYZ.NS (log 2 fold change, basal lysozyme secretion): 0.073
ISC-enriched organoids [1]; dose 0.40 uM
  Z.LYZ.NS (standard z score): −0.353
  Dose.FC.LYZ.NS (log 2 fold change, basal lysozyme secretion): −0.041
ISC-enriched organoids [1]; dose 2.00 uM
  Z.LYZ.NS (standard z score): −0.279
  Dose.FC.LYZ.NS (log 2 fold change, basal lysozyme secretion): −0.032
ISC-enriched organoids [1]; dose 10.00 uM
  Z.LYZ.NS (standard z score): −0.713
  Dose.FC.LYZ.NS (log 2 fold change, basal lysozyme secretion): −0.082
ISC-enriched organoids [2]; dose 0.08 uM
  Dose.FC.LYZ.S (log 2 fold change, carbachol-induced lysozyme secretion): 0.218
ISC-enriched organoids [2]; dose 0.40 uM
  Dose.FC.LYZ.S (log 2 fold change, carbachol-induced lysozyme secretion): −0.027
ISC-enriched organoids [2]; dose 2.00 uM
  Dose.FC.LYZ.S (log 2 fold change, carbachol-induced lysozyme secretion): −0.073
ISC-enriched organoids [2]; dose 10.00 uM
  Dose.FC.LYZ.S (log 2 fold change, carbachol-induced lysozyme secretion): −0.117
ISC-enriched organoids [3]; dose 0.08 uM
  Z.CTG (standard z score): 0.423
  Dose.FC.CTG (log 2 fold change, ATP): 0.177
ISC-enriched organoids [3]; dose 0.40 uM
  Z.CTG (standard z score): −0.149
  Dose.FC.CTG (log 2 fold change, ATP): −0.062
ISC-enriched organoids [3]; dose 2.00 uM
  Z.CTG (standard z score): −0.346
  Dose.FC.CTG (log 2 fold change, ATP): −0.145
ISC-enriched organoids [3]; dose 10.00 uM
  Z.CTG (standard z score): 0.076
  Dose.FC.CTG (log 2 fold change, ATP): 0.032
